Reference: patent publication US8114847B2, “Selective inhibitors of translesion DNA replication” (Case Western Reserve University, priority 2005, dated 2012)
“And” between values parts separate entries of the source, which are not always exact repeats. Equal values may be shown once. Read-outs that look alike come from different tables or passages of the source.

Legend:
[1] = test system: bacteriophage T4 polymerase; assay: Calculated discrimination, toxicity index and therapeutic index; type: biochemical; details: for toxicity index (abasic DNA) / toxicity index (unmodified DNA): (kpol dNTP/kexo dXTP)(dXTP/dNTP)/(4D); for discrimination (unmodified DNA): ratio of catalytic efficiencies opposite templating nucleobase; for discrimination (abasic DNA): ratio of catalytic efficiencies, dATP versus dXTP
[2] = biological target: T1, gp43exo− (bacteriophage T4 DNA polymerase) (Enterobacteria phage T4, UniProt P04415, D219A); details: opposite an abasic site; previously determined values (Table 7 footnotes d, e, f not given); cited from earlier work
[3] = biological target: T2, gp43 exo+ (bacteriophage T4 DNA polymerase) (Enterobacteria phage T4, UniProt P04415); assay: Pre-steady-state exonuclease assay (excision of dXMP from primer); type: biochemical; details: for kexo: single turnover, 1 μM gp43exo+
T2 construct: made in house
T2 sequence (P04415 1-898): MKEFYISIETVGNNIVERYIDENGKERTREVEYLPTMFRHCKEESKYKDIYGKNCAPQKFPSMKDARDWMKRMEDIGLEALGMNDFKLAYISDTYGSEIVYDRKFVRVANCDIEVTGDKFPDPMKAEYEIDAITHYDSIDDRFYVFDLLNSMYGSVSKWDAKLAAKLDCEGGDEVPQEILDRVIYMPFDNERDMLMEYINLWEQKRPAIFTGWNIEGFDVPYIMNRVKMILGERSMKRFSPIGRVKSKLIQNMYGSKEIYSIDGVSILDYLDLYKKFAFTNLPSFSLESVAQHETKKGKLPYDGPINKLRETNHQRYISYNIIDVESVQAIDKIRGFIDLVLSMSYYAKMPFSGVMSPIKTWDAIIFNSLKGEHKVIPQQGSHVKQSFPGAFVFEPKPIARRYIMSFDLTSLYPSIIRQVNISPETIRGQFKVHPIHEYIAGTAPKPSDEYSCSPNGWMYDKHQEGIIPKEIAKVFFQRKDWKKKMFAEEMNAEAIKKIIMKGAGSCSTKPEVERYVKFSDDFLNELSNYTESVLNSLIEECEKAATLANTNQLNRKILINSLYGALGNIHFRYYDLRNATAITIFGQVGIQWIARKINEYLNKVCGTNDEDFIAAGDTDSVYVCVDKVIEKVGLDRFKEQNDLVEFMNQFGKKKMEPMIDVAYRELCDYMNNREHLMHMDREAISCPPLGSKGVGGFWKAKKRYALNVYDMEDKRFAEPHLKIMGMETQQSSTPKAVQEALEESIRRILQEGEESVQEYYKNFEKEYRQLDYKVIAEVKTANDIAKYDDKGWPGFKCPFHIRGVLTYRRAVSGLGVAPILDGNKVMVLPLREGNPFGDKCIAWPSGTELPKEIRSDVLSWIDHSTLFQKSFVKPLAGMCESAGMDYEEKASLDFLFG

[4] = biological target: T1, gp43exo− (bacteriophage T4 DNA polymerase); type: biochemical; details: 50 μM dXTP 30 s, then 1000 μM dGTP
[5] = biological target: T1, gp43exo− (bacteriophage T4 DNA polymerase); type: biochemical; details: 500 μM analogue; 10 μM dNTPs; unmodified 13/20-mer
[6] = biological target: T2, gp43 exo+ (bacteriophage T4 DNA polymerase); assay: Idle turnover measurements with KINSIM simulation; type: biochemical
Description: DNA (13/20SP-mer or 13/20T-mer; 250 nM) was first preincubated with variable concentrations of 5-NITP (20-200 μM) or 5-PhITP (10-200 μM) in the presence of 30 μM dATP. Due to the nature of the DNA substrate (FIG. 1B), the insertion of dAMP opposite T at position 13 in the template maintains a usable primer template for the insertion of the nonnatural nucleotide opposite the abasic lesion (position 14). In all cases, the reaction was initiated through the addition of 1000 nM DNA gp43 exo^+. Five microliter aliquots of the reaction were quenched into tubes containing 5 μL of 200 mM EDTA at times ranging from 5 to 600 s. The quenched samples were processed as described above and product formation was analyzed using established protocols.
Simulations modeling the observed kinetic time courses for nucleotide insertion and excision were performed by mathematical analyses using KINSIM. A simplified mechanism depicted in FIG. 11 was employed that accounts for the kinetic parameters of interest. These minimally include KD values for each nucleotide, kpol values for their insertion, and kexo, which represents the hydrolytic rate constant. Both the starting reactant concentrations and rate constants were supplied for each step of the mechanism. In all cases, the rate constants were based upon either experimentally determined rate constants or published literature values. The simulated curves were then compared to those experimentally derived to judge how accurately each set of rate constants fit the experimental data. Adjustments to the rate constants were then made until the simulated time courses were nearly identical to the experimental time courses.
Idle turnover is a process in which the DNA polymerase incorporates a dNTP and then excises the inserted dNMP in the absence of the next required nucleotide triphosphate (FIG. 11). This activity provides a more accurate representation of in vivo conditions in which the polymerase should be bound and stalled at the sight of DNA damage. Idle turnover was quantified using a modified gel electrophoresis protocol that monitors the amount of extension (13-mer to 14-mer) and subsequent excision (14-mer to 13-mer) of the DNA as a function of time. All experiments were performed using single turnover reaction conditions to ensure that all DNA was bound with polymerase during the course of the reaction. Under these conditions, the rates in product formation reflect the kinetics of insertion and excision rather than enzyme dissociation from the mispair. In each experiment, the concentration of nonnatural nucleotide was varied from 20 to 200 μM. In addition, a low concentration of 30 μM dATP was used to allow for correct dNMP insertion at position 13-mer, which prevents complete degradation of DNA substrate.
Since single turnover reaction conditions were employed, kinetic steps reflecting enzyme dissociation and rebinding to product DNA are assumed to be negligible. Thus, the rate and amount of 14-mer produced are dependent upon four interrelated parameters. These include the kinetic dissociation constant (KD) for dXTP opposite the lesion (DNAn) (step 2), the rate constant for DNA extension (kpol) (step 3), the rate constant of exonuclease degradation (kexo) (step 5), and the kinetic dissociation constant (KD′) for dXTP opposite the next templating position (DNAn+1) (step 6). Although kpol is a complex function of kinetic rate constants, this value was simplified to combine the kinetic steps encompassing the conformational change prior to phosphoryl transfer, phosphoryl transfer, and the conformational change after phosphoryl transfer. Furthermore, translocation of the enzyme and pyrophosphate release (step 4) are assumed to be rapid.

[7] = biological target: T1, gp43exo− (bacteriophage T4 DNA polymerase); details: cited from earlier work
[8] = biological target: T1, gp43exo− (bacteriophage T4 DNA polymerase); assay: biochemical; type: biochemical; details: for inhibition of replication beyond an abasic site: 20 μM analogue, 500 μM dNTPs
[9] = biological target: T1, gp43exo− (bacteriophage T4 DNA polymerase); details: previously demonstrated, cited from earlier work
[10] = biological target: T1, gp43exo− (bacteriophage T4 DNA polymerase); assay: biochemical; type: biochemical
[11] = biological target: T1, gp43exo− (bacteriophage T4 DNA polymerase); assay: biochemical; details: for kpol: pseudo-first-order conditions
[12] = biological target: T2, gp43 exo+ (bacteriophage T4 DNA polymerase); details: paired opposite T; cited from earlier work
[13] = idle turnover opposite an abasic site, computer simulation fit of time courses

In the case of `O=[N+]([O-])c1ccc2c(ccn2[C@H]2C[C@H](O)[C@@H](COP(=O)(O)OP(=O)(O)OP(=O)(O)O)O2)c1` [5-NITP, 5-nitro-1-indolyl-2′-deoxyribose-5′-triphosphate], the therapeutic index [1] is reported as ~128, the “toxicity index (abasic DNA)” value [1] is reported as ~6 and the “toxicity index (unmodified DNA)” value [1] is reported as 0.047. For the same compound, the “discrimination (unmodified DNA)” value [1] was ~53, the “discrimination (abasic DNA)” value [1] was 6.1×10^−4 and the Kd [2] was 18 µM and 10 µM. For the same compound, the kpol [2] was 126 s⁻¹ and 126 ± 7 s⁻¹, the kexo ([3]; template abasic site) was 9.9 ± 0.8 s⁻¹ and the kexo ([3]; template nucleoside thymine) was 13.0 ± 1.4 s⁻¹. For the same compound, the “extension beyond the mispair formed opposite an abasic site” value [4] was “cannot elongate beyond the 14-mer product”, the “inhibition of normal DNA synthesis” value [5] was “little effect” and the Kd ([6]; dXTP opposite the next templating position, computer simulation fit) was 10000 µM. For the same compound, the Kd [6, 13] was 20 µM, the kexo [6, 13] was 10 S^−1 and 10 ± 2 S^−1 and the kpol [6, 13] was 100 S^−1 and 100 ± 10 S^−1. The Kd [7] was 18 µM and ~10 µM, the “catalytic efficiency for insertion opposite an abasic site relative to natural nucleotide (dAMP/dATP), greater” value [7] was 1000 fold and the “incorporation opposite an abasic site favored compared to insertion opposite T (kpol)” value [7] was 140 fold. The kpol [7] was 126 ± 6 s⁻¹, the kpol/KD [7] was 7e+06 M⁻¹ s⁻¹ and the “inhibition of replication beyond an abasic site” value [8] was “level of 14-mer product remains invariant”. The IC50 [8] was 10 µM and ~10 µM, the Kd ([9]; independent of templating nucleobase) was ~20 µM and the kpol ([9]; opposite T) was ~0.9 s⁻¹.
In the case of `O=P(O)(O)OP(=O)(O)OP(=O)(O)OC[C@H]1O[C@@H](n2ccc3cc(-c4ccccc4)ccc32)C[C@@H]1O` [5-PhITP, 5-Phenyl-indole-2′-Deoxyribofuranoside 5′-Triphosphate], the “toxicity index (abasic DNA)” value [1] is reported as ~33, the “toxicity index (unmodified DNA)” value [1] is reported as 0.01-0.05 and the “discrimination (unmodified DNA)” value [1] is reported as 460-2500. The “discrimination (abasic DNA)” value [1] was 11.4×10^−5 and 11.4 × 10^−4, the “extension beyond the mispair formed opposite an abasic site” value [4] was “identical results are obtained” and the “amplitude of the burst phase” value [10] was 75 nM. For the same compound, the burst amplitude [10] was 240 ± 6 nM and 220 ± 3 nM and 220 nM, the kcat [10] was 2.2 s⁻¹ and the kobs [10] was 37.4 s⁻¹ and 38.4 s⁻¹ and ~38 s⁻¹ and 38.4 ± 2.1 s⁻¹ and 37.4 ± 1.4 s⁻¹. The “kobs calculated from Michaelis-Menten equation” value [10] was 14 s⁻¹, the kpol [10] was 53 ± 4 s⁻¹ and the kpol/KD [10] was 3.8e+06 M⁻¹ s⁻¹. For the same compound, the “observed rate constant of the burst phase (kobs)” value [10] was 9.1 ± 2.1 s⁻¹ and 9 s⁻¹, the Kd ([10]; KD) was ~10 µM and the Kd ([11]; KD) was ~25 µM. The kpol/KD ([11]; Template A) was 4.0 × 10^3 M^−1S^−1, the kpol ([11]; Template A) was 0.12 ± 0.01 s⁻¹ and the kpol/KD ([11]; Template C) was 6.8 × 10^3 M^−1S^−1. The kpol ([11]; Template C) was 0.19 ± 0.02 s⁻¹, the kpol/KD ([11]; Template G) was 21.7 × 10^3 M^−1S^−1 and the kpol ([11]; Template G) was 0.26 ± 0.02 s⁻¹. For the same compound, the kpol/KD ([11]; Template T) was 6.4 × 10^3 M^−1S^−1, the kpol ([11]; Template T) was 0.16 ± 0.01 s⁻¹ and the “inhibition of normal DNA synthesis” value [5] was “Nearly identical results are obtained”. The “stability of incorporation opposite the abasic site (idle turnover)” value ([6]; 100 μM nucleotide, compared with 100 μM 5-NITP) was “more stably incorporated opposite the abasic site”, the Kd [6, 13] was 20 ± 5 µM and the kexo [6, 13] was 1.0 ± 0.1 S^−1. For the same compound, the kpol [6, 13] was 50 ± 10 S^−1, the “inhibition of replication beyond an abasic site” value [8] was “Identical results are obtained” and the IC50 [8] was 10 µM and ~10 µM.
For `Nc1ncnc2c1ncn2[C@H]1C[C@H](O)[C@@H](COP(=O)(O)O)O1` [dAMP], the “rate constant for excision opposite the abasic site faster than opposite T” value ([3]; abasic site versus T) was ~40 fold, the kexo ([3]; template abasic site) was 28.5±1.1 s^−1 and ≈ 28 s^−1 and 28.5+/−1.1 s^−1 and the kexo ([3]; template nucleoside thymine) was 0.8 ± 0.1 s⁻¹. For the same compound, the “kexo, published value” [12] was 2 s⁻¹.
